Test results published in the supplement of paper PMC10307832.

Experiments:
Experiment in all cases: relative viability (nuclei count vs DMSO), 5 days (fraction); higher = more cells survive
Sorafenib + Tozasertib = compound: CNC(=O)c1cc(Oc2ccc(NC(=O)Nc3ccc(Cl)c(C(F)(F)F)c3)cc2)ccn1 [Sorafenib] + Cc1cc(Nc2cc(N3CCN(C)CC3)nc(Sc3ccc(NC(=O)C4CC4)cc3)n2)n[nH]1 [Tozasertib] (partner 0.1 µM)
Method in brief: (§1)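 For relative viability, nuclei counts in treated wells were divided by those in vehicle wells. Lung cancer cell lines had been pin-tool dosed in 1536-well plates the day after seeding and cultured for 5 days, then fixed and stained in one step (final 0.05% Triton X-100, 1% formaldehyde, 1 ug/ml Hoechst) and imaged at 4×. Doses were one drug alone or a fixed anchor-drug dose plus five library-drug doses (not always all listed) in √10 steps, and values are duplicate-plate medians.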

Sorafenib + Alpelisib = compound: CNC(=O)c1cc(Oc2ccc(NC(=O)Nc3ccc(Cl)c(C(F)(F)F)c3)cc2)ccn1 [Sorafenib] + Cc1nc(NC(=O)N2CCC[C@H]2C(N)=O)sc1-c1ccnc(C(C)(C)C(F)(F)F)c1 [Alpelisib] (partner 2 µM)
Method in brief: as §1

Sorafenib + Trametinib = compound: CNC(=O)c1cc(Oc2ccc(NC(=O)Nc3ccc(Cl)c(C(F)(F)F)c3)cc2)ccn1 [Sorafenib] + CC(=O)Nc1cccc(-n2c(=O)n(C3CC3)c(=O)c3c(Nc4ccc(I)cc4F)n(C)c(=O)c(C)c32)c1 [Trametinib] (partner 0.02 µM)
Method in brief: as §1

Sorafenib + Olaparib = compound: CNC(=O)c1cc(Oc2ccc(NC(=O)Nc3ccc(Cl)c(C(F)(F)F)c3)cc2)ccn1 [Sorafenib] + O=C(c1cc(Cc2n[nH]c(=O)c3ccccc23)ccc1F)N1CCN(C(=O)C2CC2)CC1 [Olaparib] (partner 8 µM)
Method in brief: as §1

Sorafenib + Phenformin = compound: CNC(=O)c1cc(Oc2ccc(NC(=O)Nc3ccc(Cl)c(C(F)(F)F)c3)cc2)ccn1 [Sorafenib] + N=C(N)NC(=N)NCCc1ccccc1 [Phenformin] (partner 250 µM)
Method in brief: as §1

Cell Line | relative viability (Sorafenib + Tozasertib; first compound 0.08 µM) | relative viability (Sorafenib + Tozasertib; first compound 0.253 µM) | relative viability (Sorafenib + Tozasertib; first compound 2.53 µM) | relative viability (Sorafenib + Tozasertib; first compound 8 µM) | relative viability (Sorafenib + Alpelisib; first compound 0.08 µM) | relative viability (Sorafenib + Alpelisib; first compound 0.253 µM) | relative viability (Sorafenib + Alpelisib; first compound 2.53 µM) | relative viability (Sorafenib + Alpelisib; first compound 8 µM) | relative viability (Sorafenib + Trametinib; first compound 0.08 µM) | relative viability (Sorafenib + Trametinib; first compound 0.253 µM) | relative viability (Sorafenib + Trametinib; first compound 2.53 µM) | relative viability (Sorafenib + Trametinib; first compound 8 µM) | relative viability (Sorafenib + Olaparib; first compound 0.08 µM) | relative viability (Sorafenib + Olaparib; first compound 0.253 µM) | relative viability (Sorafenib + Olaparib; first compound 2.53 µM) | relative viability (Sorafenib + Olaparib; first compound 8 µM) | relative viability (Sorafenib + Phenformin; first compound 0.08 µM) | relative viability (Sorafenib + Phenformin; first compound 0.253 µM) | relative viability (Sorafenib + Phenformin; first compound 2.53 µM) | relative viability (Sorafenib + Phenformin; first compound 8 µM)
COR-L23 | 0.24 | 0.185 | 0.113 | 0.079 | 0.83 | 0.758 | 0.79 | 0.637 | 0.645 | 0.433 | 0.312 | 0.232 | 0.336 | 0.372 | 0.346 | 0.233 | 0.44 | 0.419 | 0.455 | 0.287
NCI-H1355 | 0.55 | 0.592 | 0.416 | 0.354 | 0.887 | 0.767 | 0.784 | 0.778 | 0.493 | 0.419 | 0.42 | 0.264 |  | 0.753 | 0.685 | 0.411 | 0.497 | 0.468 | 0.452 | 0.387
NCI-H1437 | 0.419 | 0.384 | 0.416 | 0.291 | 1.01 | 0.922 | 0.905 | 0.546 | 0.59 | 0.389 | 0.533 | 0.342 | 0.633 | 0.585 | 0.493 | 0.254 | 0.301 | 0.299 | 0.302 | 0.306
NCI-H2087 | 0.26 | 0.241 | 0.212 | 0.152 | 0.88 | 0.81 | 0.924 | 0.341 | 0.19 | 0.233 | 0.199 | 0.15 | 0.717 | 0.566 | 0.501 | 0.116 | 0.467 | 0.403 | 0.389 | 0.14
HOP-62 | 0.431 | 0.331 | 0.338 | 0.155 | 0.995 | 0.775 | 0.765 | 0.794 | 0.438 | 0.45 | 0.372 | 0.209 | 0.28 | 0.389 | 0.405 | 0.249 | 0.682 | 0.558 | 0.54 | 0.369
NCI-H2228 | 0.273 | 0.283 | 0.18 | 0.182 | 0.863 | 0.753 | 0.694 | 0.64 | 0.802 | 0.377 | 0.356 | 0.266 | 0.868 | 0.46 | 0.532 | 0.294 | 0.362 | 0.285 | 0.259 | 0.133
UMC-11 | 0.209 | 0.195 | 0.202 | 0.184 | 0.999 | 0.959 | 0.968 | 0.529 | 0.854 | 0.743 | 0.639 | 0.612 | 0.39 | 0.375 | 0.38 | 0.15 | 0.316 | 0.301 | 0.24 | 0.155
NCI-H1915 | 0.454 | 0.409 | 0.397 | 0.374 | 0.998 | 0.922 | 0.909 | 1.07 | 0.322 | 0.289 | 0.204 | 0.125 | 0.283 | 0.226 | 0.266 | 0.271 | 0.357 | 0.33 | 0.359 | 0.341
LK-2 | 0.17 | 0.226 | 0.17 | 0.153 | 1.06 |  | 0.89 | 0.647 | 0.78 | 0.764 | 0.512 | 0.239 | 0.674 | 0.734 | 0.575 | 0.346 | 0.562 | 0.274 | 0.38 | 0.0899
NCI-H522 | 0.626 | 0.596 | 0.588 | 0.523 |  |  |  |  | 0.789 | 0.664 | 0.748 | 0.58 | 0.68 | 0.634 | 0.775 | 0.541 | 0.512 | 0.526 | 0.695 | 0.478
NCI-H1395 | 0.748 | 0.729 | 0.8 | 0.634 | 1.26 |  | 0.981 | 0.695 | 1.25 |  | 1.04 | 0.846 | 0.517 |  | 0.515 | 0.394 | 0.51 | 0.407 | 0.453 | 0.392
PC-14 | 0.588 | 0.555 | 0.593 | 0.577 | 1 | 0.848 | 0.854 | 0.753 | 0.883 | 0.694 | 0.567 | 0.158 | 0.323 | 0.315 | 0.238 | 0.105 | 0.632 | 0.429 | 0.696 | 0.591
SW 900 | 0.718 | 0.467 | 0.402 | 0.316 |  |  |  |  |  | 0.792 | 0.934 | 0.719 | 0.764 | 0.88 | 0.909 | 0.34 | 0.871 | 0.602 | 0.461 | 0.22
NCI-H1792 |  |  |  |  | 0.704 | 0.622 | 0.657 | 0.664 | 0.527 | 0.461 | 0.421 | 0.177 | 0.645 | 0.416 | 0.347 | 0.179 | 0.199 | 0.309 | 0.234 | 0.181
ABC-1 | 0.227 | 0.219 | 0.214 | 0.185 | 1.01 | 0.945 | 1.11 | 1.03 |  |  |  |  |  | 0.565 | 0.693 | 0.4 | 0.218 | 0.234 | 0.247 | 0.233
NCI-H1703 |  |  |  |  | 0.301 | 0.176 | 0.189 | 0.156 |  |  |  |  | 0.317 | 0.27 | 0.194 | 0.192 |  |  |  | 
NCI-H1563 |  |  |  |  | 0.903 | 1 | 0.894 | 0.728 |  |  |  |  |  |  |  |  | 0.709 | 0.643 | 0.749 | 0.532
NCI-H2342 | 0.568 | 0.488 | 0.377 | 0.366 |  |  |  |  | 0.887 | 0.749 | 0.71 | 0.682 | 0.433 | 0.487 | 0.351 | 0.388 | 0.67 | 0.487 | 0.528 | 0.381
IA-LM |  |  |  |  | 0.714 | 0.547 | 0.431 | 0.442 |  |  |  |  | 0.65 | 0.601 | 0.51 | 0.43 |  |  |  | 
